pIC50: −log10 of the molar value.
Biological target: 5-HT7 serotonin receptor (Homo sapiens, UniProt P34969)
Assay: competitive radioligand binding versus [3H]LSD
Format: cell-based

Sequence of 5-HT7 serotonin receptor (P34969 whole entry): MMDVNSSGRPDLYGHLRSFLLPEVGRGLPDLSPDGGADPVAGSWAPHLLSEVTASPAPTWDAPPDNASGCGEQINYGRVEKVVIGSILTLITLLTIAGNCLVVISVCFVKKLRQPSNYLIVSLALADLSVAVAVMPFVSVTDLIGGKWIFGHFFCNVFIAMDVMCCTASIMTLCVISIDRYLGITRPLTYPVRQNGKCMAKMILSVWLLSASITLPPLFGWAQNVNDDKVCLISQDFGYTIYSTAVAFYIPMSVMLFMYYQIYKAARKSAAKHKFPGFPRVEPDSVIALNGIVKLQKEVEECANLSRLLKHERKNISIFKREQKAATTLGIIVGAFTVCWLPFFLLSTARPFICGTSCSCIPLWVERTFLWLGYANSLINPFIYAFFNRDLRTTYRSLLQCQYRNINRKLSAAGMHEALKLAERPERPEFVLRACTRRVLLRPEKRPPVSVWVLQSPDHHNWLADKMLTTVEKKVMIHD

pIC50: 4.00
Substance: cimicifugic acid KK [compound 4]
